US11149018B2, “Substituted N-arylethyl-2-aminoquinoline-4-carboxamides and use thereof” (Bayer Aktiengesellschaft, priority 2017, dated 2021)

The molecules below were run against FP receptor (Homo sapiens (Human), UniProt P43088) (assay: In vitro test of inhibition of human FP receptor activity (PGF2α-induced calcium flux in FP-expressing CHEM1 cells)). Conditions: PGF2α 2 nM, some mean values of multiple determinations.
Format: cell-based
Description: B-1. In Vitro Test of Inhibition of Human FP Receptor Activity
For the characterization of test substances in respect of FP antagonism, PGF2α-induced calcium flux in FP-expressing CHEM1 cells (Millipore, HTS093C) was used.
10 μl of the prediluted substance solution are added to the Fluo-8-laden cells and incubated at 37° C., 5% CO2 for 10 minutes. The FP receptor is activated by adding 40 μl of 2 nM (final concentration) PGF2α in calcium-free Tyrode, 2 mM CaCl2, 0.002% SmartBlock, and the calcium flux is determined by measuring the fluorescence at ex. 470 nm/[…].
Table 1 below lists the IC50 values from this assay for individual working examples of the invention (some as mean values from multiple independent individual determinations): […]

Chain of FP receptor (P43088 whole entry): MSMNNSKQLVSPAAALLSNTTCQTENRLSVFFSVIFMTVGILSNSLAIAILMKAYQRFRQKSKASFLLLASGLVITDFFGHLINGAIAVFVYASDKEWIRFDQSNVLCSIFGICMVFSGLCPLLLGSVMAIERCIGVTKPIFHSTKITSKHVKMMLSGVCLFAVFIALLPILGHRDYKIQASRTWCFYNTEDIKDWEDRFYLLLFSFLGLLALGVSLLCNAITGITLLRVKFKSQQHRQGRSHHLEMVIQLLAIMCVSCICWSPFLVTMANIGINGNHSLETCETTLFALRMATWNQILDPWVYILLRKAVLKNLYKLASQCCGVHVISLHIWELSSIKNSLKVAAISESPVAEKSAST

Row | IC50 | SMILES
1 | 92 nM | Cc1c(N2CCCCC2)nc2ccc(Br)cc2c1C(=O)NCC(CC(=O)O)c1c(F)cccc1Cl (single isomer, unassigned; (+)) [Example 3, (+)-4-({[6-Bromo-3-methyl-2-(piperidin-1-yl)quinolin-4-yl]carbonyl}amino)-3-(2-chloro-6-fluorophenyl)butanoic acid]
2 | 38 nM | Cc1c(N2CCCC(F)C2)nc2ccc(Br)cc2c1C(=O)NCC(CCC(=O)O)c1c(Cl)ccc(Cl)c1Cl (single isomer, unassigned) [Example 224, 5-[({6-Bromo-2-[3-fluoropiperidin-1-yl]-3-methylquinolin-4-yl}carbonyl)amino]-4-(2,3,6-trichlorophenyl)pentanoic acid]
3 | 170 nM | Cc1c(NCCc2ccccc2)nc2ccc(Br)cc2c1C(=O)NCC(CC(=O)O)c1c(F)cccc1Cl (racemic) [Example 4, (+/−)-4-[({6-Bromo-3-methyl-2-[(2-phenylethyl)amino]quinolin-4-yl}carbonyl)amino]-3-(2-chloro-6-fluorophenyl)butanoic acid]
4 | 25 nM | Cc1c(N2CCCC(F)C2)nc2ccc(Br)cc2c1C(=O)NCC(CCC(=O)O)c1c(F)cccc1F (stereo not drawn) [Example 253, 5-[({6-Bromo-2-(3-fluoropiperidin-1-yl)-3-methylquinolin-4-yl}carbonyl)amino]-4-(2,6-difluorophenyl)pentanoic acid]
5 | 26 nM | Cc1c(N2CCCCC2)nc2ccc(Br)cc2c1C(=O)NCC(CC(=O)O)c1c(F)cccc1Cl (racemic) [Example 1, (+/−)-4-({[6-Bromo-3-methyl-2-(piperidin-1-yl)quinolin-4-yl]carbonyl}amino)-3-(2-chloro-6-fluorophenyl)butanoic acid]
6 | 250 nM | Cc1c(NCC(C)C)nc2ccc(Br)cc2c1C(=O)NCC(CCC(=O)O)c1ccccc1Cl (racemic) [Example 102, (+/−)-5-({[6-Bromo-2-(isobutylamino)-3-methylquinolin-4-yl]carbonyl}amino)-4-(2-chlorophenyl)pentanoic acid]
7 | 14 nM | Cc1c(N2CCCC2)nc2ccc(Br)cc2c1C(=O)NCC(CCC(=O)O)c1ccccc1C(F)(F)F (racemic) [Example 114, (+/−)-5-({[6-Bromo-3-methyl-2-(pyrrolidin-1-yl)quinolin-4-yl]carbonyl}amino)-4-[2-(trifluoromethyl)phenyl]pentanoic acid]
8 | 120 nM | Cc1c(N2CCCC2)nc2ccc(Br)cc2c1C(=O)NCC(CCC(=O)O)c1c(F)cccc1F (single isomer, unassigned) [Example 248, 5-({[6-Bromo-3-methyl-2-(pyrrolidin-1-yl)quinolin-4-yl]carbonyl}amino)-4-(2,6-difluorophenyl)pentanoic acid]
9 | 3 nM | Cc1c(N2CCCC(F)(F)C2)nc2ccc(Br)cc2c1C(=O)NCC(CCC(=O)O)c1c(F)ccc(F)c1Cl (racemic) [Example 155, (+/−)-5-({[6-Bromo-2-(3,3-difluoropiperidin-1-yl)-3-methylquinolin-4-yl]carbonyl}amino)-4-(2-chloro-3,6-difluorophenyl)pentanoic acid]
10 | 58 nM | Cc1c(N2CCC(F)(F)CC2)nc2ccc(Br)cc2c1C(=O)NCC(CCC(=O)O)c1cc(F)ccc1Cl (racemic) [Example 8, (+/−)-5-({[6-Bromo-2-(4,4-difluoropiperidin-1-yl)-3-methylquinolin-4-yl]carbonyl}amino)-4-(2-chloro-5-fluorophenyl)pentanoic acid]
11 | 4.7 nM | Cc1c(N2CCCC(C)C2)nc2ccc(Br)cc2c1C(=O)NCC(CCC(=O)O)c1ccccc1Cl (stereo not drawn) [Example 45, 5-[({6-Bromo-3-methyl-2-[3-methylpiperidin-1-yl]quinolin-4-yl}carbonyl)amino]-4-(2-chlorophenyl)pentanoic acid]
12 | 24 nM | Cc1c(N2CCCC(F)C2)nc2ccc(Br)cc2c1C(=O)NCC(CCC(=O)O)c1ccccc1Cl (single isomer, unassigned; (+)) [Example 187, (+)-5-[({6-Bromo-2-[3-fluoropiperidin-1-yl]-3-methylquinolin-4-yl}carbonyl)amino]-4-(2-chlorophenyl)pentanoic acid]
